Measured values reported in patent US8524754B2, “Polymorphic, crystalline and mesophase forms of sodium 2-(5-bromo-4-(4-cyclopropylnaphthalen-1-yl)-4H-1,2,4-triazol-3-ylthio) acetate, and uses thereof” (Ardea Biosciences, Inc., priority 2010, dated 2013).

Test: Solid-state stability of packaged Form A / crystalline polymorphs under accelerated and long term conditions
Assay type: physicochemical
Details: for degradation of packaged Form A: double LDPE bag inside heat sealed anhydrous foil bag in HDPE container
Description: Form A of sodium 2-(5-bromo-4-(4-cyclopropylnaphthalen-1-yl)-4H-1,2,4-triazol-3-ylthio)acetate was tested under various conditions to determine thermodynamic stability. […] Packaging was in a double low density polyethylene plastic bag inside a heat sealed anhydrous foil bag in an HDPE container.
The improved stability of the crystalline polymorphs of sodium 2-(5-bromo-4-(4-cyclopropylnaphthalen-1-yl)-4H-1,2,4-triazol-3-ylthio)acetate provides for the preparation of pharmaceutical dosage forms displaying reduced variability in the dosage present in a given dosage form, reduction in the presence of impurities in the final pharmaceutical product, and an improved shelf life of formulated dosage forms when compared to the pharmaceutical dosage form prepared with the amorphous solid state form of the carboxylic acid.

degradation of packaged Form A (accelerated conditions (40° C.-75% RH), 6 months): No degradation
degradation of packaged Form A (long term conditions (25° C.-60% RH), 12 months): no degradation
Structure (SMILES): O=C([O-])CSc1nnc(Br)n1-c1ccc(C2CC2)c2ccccc12.[Na+] [Form A, sodium 2-(5-bromo-4-(4-cyclopropylnaphthalen-1-yl)-4H-1,2,4-triazol-3-ylthio)acetate]
stability in comparison to the amorphous solid state form of the carboxylic acid (free acid) (solid state): improvement over the solid state amorphous free acid
